Source: patent US20140134139A1, “CD34+ CELLS AND METHODS OF USE” (NORTHWESTERN UNIVERSITY, priority 2012, published 2014)

Tests used:
[1] = system: murine endothelial cells (SVEC); assay: Western blot of histone acetylation and methylation in SVEC cells; format: cell-based, mouse; conditions: 1 μM BIX-01294, compared to untreated control cells
Description: Cell lysate from 1.5×10^7 SVEC cells was prepared using whole cell lysate buffer (50 mM Tris-HCl, 0.5% Igepal (NP-40), 150 nM NaCl). […] Equal protein loading in each lane was verified using antibodies against β-actin and changes in modified histone levels were quantified by first normalization to total H3 or H4 protein.
Therefore, murine endothelial cells (SVEC) were treated with either 1 μM BIX-01294 or staggered addition of 1 mM VPA then 500 nM 5′-Azacytidine for 48 h and histone acetylation and methylation were assessed by western blot.

SVEC cells = assay: ChIP assay of acetylated H3K9 at Oct4 and cardiomyocyte gene promoters in SVEC cells; format: cell-based, mouse; conditions: p<0.05
human CD34+ cells = assay: Toxicity to human CD34+ cells; format: cell-based; conditions: similar drug doses as for mouse EPCs and even 2-fold reduced levels
Description: In an attempt to increase their plasticity, 2.0×10^5 sorted EPCs were seeded on fibronectin coated plates then treated for 48 hours with individual or combinations of epigenetic modifying agents; 500 nM 5′-Azacytidine (5′ Aza; DNA methyltransferase inhibitor), 1 mM valproic acid (VPA; histone deacetylase inhibitor), 1 mM BIX-01294 (histone methyltransferase inhibitor). Drug dosages were verified as non-toxic by cell viability analysis (data not shown). […] All mRNA expression was normalized to 18S RNA then presented as a fold difference compared to untreated EPCs. […]
The epigenetic reprogramming by these small molecules was evaluated in human CD34+ cells to determine whether their reprogramming potential is limited to mouse EPCs or whether it can also be translated to human EPCs (bone marrow mobilized CD34+ cells), currently used in clinical trials (Losordo D W et al., Circ. Res. 109:428-436 (2011)). CD34+ cells, obtained from healthy donors and provided by Baxter healthcare, were treated or not with VPA (2.5 mM) and 5′ Aza (500 nM) and mRNA expression of pluripotency and cardiomyocyte-specific transcripts was determined. […] In order to determine enhanced functional capacity of reprogrammed CD34+ cells in the repair of post-infarct myocardium, a previously determined sub-therapeutic dose of 2.5×10^4 cells was used for post-AMI transplantation in immune-e-deficient mouse AMI model. […]

Lineage-Sca-1+CD31+ EPCs [2] = assay: Cell viability analysis of drug-treated mouse EPCs; format: cell-based; conditions: 500 nM 5′ Aza, 1 mM VPA, 1 mM BIX-01294; 48 hours; data not shown
Description: In an attempt to increase their plasticity, 2.0×10^5 sorted EPCs were seeded on fibronectin coated plates then treated for 48 hours with individual or combinations of epigenetic modifying agents; 500 nM 5′-Azacytidine (5′ Aza; DNA methyltransferase inhibitor), 1 mM valproic acid (VPA; histone deacetylase inhibitor), […] (histone methyltransferase inhibitor). Drug dosages were verified as non-toxic by cell viability analysis (data not shown). […] All mRNA expression was normalized to 18S RNA then presented as a fold difference compared to untreated EPCs. […] Since the treated cells express cardiomyocyte genes at basal level they may be more inclined to differentiate into mature CMCs under conditions conducive for CMC differentiation. Similar changes in gene expression were found in human CD34+ cells with the regimen of 2.5 mM VPA followed by 500 nM 5′ Aza (FIG. 2A). BIX-01294 treatment, even at reduced doses, was toxic to human CD34+ cells and was therefore not used in human cell studies.

Nkx2.5 promoter = assay: Pyrosequencing methylation analysis of the Nkx2.5 promoter in SVECs; format: cell-based, mouse; conditions: treated vs control SVEC cells
Lineage-Sca-1+CD31+ EPCs [3] = assay: Real-time PCR gene expression in drug-treated sorted mouse EPCs; format: cell-based
Description: Relative mRNA expression of target genes was normalized to the endogenous 18S control gene.
Lineage-Sca-1+CD31+ EPCs were cultured on 5 μg/mL human fibronectin coated plates in DMEM supplemented with 10% FBS and penicillin/streptomycin at 37° C. with 5% CO2. Human CD34+ cells were cultured in X-VIVO (Lonza) media supplemented with 0.5% human serum albumin, 50 ng/mL Flt3 ligand, 20 ng/mL stem cell factor, 50 ng/mL VEGF, and 10 ng/mL thrombopoietin. Either cell type was treated with VPA (2.5 mM) for 24 hours then 500 nM 5′ Aza was added to the culture media and cells remained in culture for an additional 24 hours (48 hours total). Different ranges of doses were tested with above doses being determined as the optimal doses not only for reprogramming but also for displaying minimal cellular toxicity. Further, a staggered treatment protocol, that is, contacting an EPC culture with a first epigenetic programming agent (for example, VPA) for a first period of time (for example, 24 hr), followed by contacting the EPC culture with a second epigenetic programming agent (for example, 5′-Aza) for a second period of time (for example, 24 hr) was determined to be a highly preferred protocol for reprogramming. Mouse EPCs were also cultured with 1 μM BIX-01294 for 48 hours in the same culture conditions. […]

COc1cc2nc(N3CCCN(C)CC3)nc(NC3CCN(Cc4ccccc4)CC3)c2cc1OC [BIX-01294]
reduction of H3K9 di-methylation [1]: 64.3±11% | acetylated H3K9 bound to cardiac-specific gene promoters (Actn2, Ryr2, TnnT2) (SVEC cells; compared to non-treated cells): more heavily bound by acetylated H3K9 | acetylated H3K9 bound to the core (CP) and regulatory promoter (RP) regions of Oct4 (SVEC cells; compared to untreated controls): significant increase | toxicity to human CD34+ cells (human CD34+ cells): toxic | toxicity of drug dosages by cell viability analysis (Lineage-Sca-1+CD31+ EPCs [2]): non-toxic | CpG methylation patterns of Nkx2.5 (Nkx2.5 promoter): no significant difference | induction of cardiomyocyte-specific transcripts (Lineage-Sca-1+CD31+ EPCs [3]; real-time PCR immediately after treatment, without cardiomyocyte differentiation conditions): de novo induction of cardiomyocyte-specific transcripts | Oct4 expression, fold difference compared to untreated EPCs (Lineage-Sca-1+CD31+ EPCs [3]; real-time PCR, normalized to 18S RNA, 48 hours with 1 mM BIX-01294, or 24 hours 1 mM VPA then 24 hours 500 nM 5′ Aza): 9.5±2.0 fold

CCCC(CCC)C(=O)O [VPA, valproic acid]
toxicity of drug dosages by cell viability analysis (Lineage-Sca-1+CD31+ EPCs [2]): non-toxic
